According to patent US4665074A, “6-(polyfluoroalkoxyphenyl) pyridazinones, their compositions, synthesis and use” (Byk Gulden Lomberg Chemische Fabrik GmbH, priority 1984, dated 1987):

Legend:
[1] = system: electrically-stimulated left atrium of the rat; assay: Positive inotropic action in vitro on electrically-stimulated left atrium; format: cell-based; conditions: for -lg(EC40pot.) left atrium / EC40: EC40pot. in mol/l, 40% increase in contraction force vs initial value, 31°; for (EC40pot.)theophylline /(EC40pot.)substance: activity on left atrium relative to theophylline; for EC40: Rattus norvegicus, read-out: -lg(EC40pot.) left atrium (converted)
Description: Testing the positive inotropic action of the compounds in vitro on the electrically-stimulated left atrium of the rat is effected as follows:
Isometric contractions (HSE force sensor K-30; Watanabe recorder, Linear Corder Mark 5) of isolated left atria of rats (.male., 250-300 g) in an organ bath (10 ml, Tyrode nutrient solution, 31°, gassing with carbogen, initial tension of the organs 0.25 g) with electric stimulation (HSE stimulator, 7 V, 3 ms, 2 Hz) are recorded. After an equilibration period of 30 minutes, a dose-dependent increase in the contraction force is brought about by administration of the test substance in concentrations which increase semilogarithmically and cumulatively (for example 1×10^-6 +2×10^-6 +7×10^-6 +2×10^-5etc. mol/l), a constant inotropic response being waited for after each individual dose of the test substance before the next higher concentration is administered. The particular increase in the contraction force is expressed as a % of the initial value before administration of the substance. The concentration of the test substance which potentiates the contraction force of the atrium by 40% compared with the initial value (EC40pot.mol/l), expressed by the negative logarithm of (EC40pot.mol/l): -1 g(EC40pot.), serves as a measure of the cardiotonic activity.
(§1) The measure used for the organ-selective activity is the ratio between (EC40pot.) left atrium and (EC50)trachea. As a measure of the activity, the ratios between (EC50)trachea values and (EC40pot.)left atrium values of theophylline and the tested compound are given.

[2] = system: isolated, spontaneously contracted chain of tracheal rings of the guinea pig; assay: Bronchospasmolytic action in vitro on chain of tracheal rings (relaxation of spontaneous tonic contraction); format: cell-based; conditions: for -lg(EC50) trachea / EC50: EC50 in mol/l, 50% of maximum relaxation achieved by (-)isoprenaline 10^-6 mol/l, 37°; for (EC50)theophylline / (EC50)substance: activity on trachea relative to theophylline; for (EC40pot.) left atrium / (EC50)trachea: organ-selectivity ratio, rat left atrium vs guinea pig trachea; for EC50: Cavia porcellus, read-out: -lg(EC50) trachea (converted)
Description: To test the bronchospasmolytic action of the compounds in vitro on a chain of tracheal rings of the guinea pig, such tracheal rings are subjected to the following procedure:
Four parallel chains of tracheal rings (each consisting of 6 individual rings) of guinea pigs (.male. and .female., 430-600 g) in an organ bath [5 ml, Krebs-Henseleit solution with added phentolamine (10^-5 mol/l), 37°, initial tension of the organs 2 g, gassing with carbogen] develop a stable, spontaneous tonic contraction after about 20 to 30 minutes. […] Over a period of from 20 to 30 minutes, a complete dose/action curve of the test substance is thus obtained. The particular relaxation is expressed as a percentage fraction of the maximum relaxation achieved by administration of (-)isoprenaline (10^-6 mol/l).
as §1

[3] = system: acetylcholine-induced bronchospasm; assay: Protective action against acetylcholine-induced bronchospasm in conscious guinea pigs; format: in vivo, guinea pig; conditions: 100 μmol/kg p.o.; test 30 min after application; acetylcholine mist 0.06%
Description: Guinea pigs (250-350 g) in a closed Plexiglas cylinder (volume: 5 l) are exposed to a mist of acetylcholine (0.06% in 0.9% sodium chloride solution; Heyer Use 77 ultrasonic atomizer) twice at an interval of 20 minutes. The time from the start of atomization until there is onset of a marked struggle to breathe (in certain circumstances, a hypoxic convulsion in the lateral position) is measured and designated the latency perid. […] The test substance is administered orally by gavage (standard dose 100 μmol/kg, volume 1 ml of 4% strength methocel suspension in 0.9% strength sodium chloride solution/kg). After 30 minutes, the animals are again exposed to the mist of acetylcholine, and the latency periods are measured. A prolongation of the latency period to […] is regarded as a protective action.

Compound | -lg(EC40pot.) left atrium [1] | (EC40pot.)theophylline /(EC40pot.)substance [1] | -lg(EC50) trachea [2] | (EC50)theophylline / (EC50)substance [2] | (EC40pot.) left atrium / (EC50)trachea [2] | Tripling of the latency period in N of 10 animals [3] | -lg(EC40pot.) left atrium ([1]; listed as 2) | (EC40pot.)theophylline /(EC40pot.)substance ([1]; listed as 2) | -lg(EC50) trachea ([2]; listed as 2) | (EC50)theophylline / (EC50)substance ([2]; listed as 2) | (EC40pot.) left atrium / (EC50)trachea ([2]; listed as 2) | EC40 [1] | EC50 [2]
6-(4-difluoromethoxy-3-methoxyphenyl)-3[2H]pyridazinone [Serial No. 5] | 5.76 | 240 | 5.80 | 85 | 1.1 | 7 of 10 animals | – | – | – | – | – | – | –
O=c1ccc(-c2ccc(OC(F)(F)F)cc2)n[nH]1 [Serial No. 1, 6-(4-trifluoromethoxyphenyl)-3[2H]pyridazinone] | 4.0 | 4.2 | 4.60 | 5.4 | 4.0 | – | 4.66 | 19 | 5.11 | 17.4 | 2.8 | – | –
O=c1ccc(-c2cccc(OC(F)(F)C(F)F)c2)n[nH]1 [Serial No. 2, 6-[3-(1,1,2,2-tetrafluoroethoxy)phenyl]-3[2H]pyridazinone] | – | – | – | – | – | 8 of 10 animals | – | – | – | – | – | – | –
O=c1ccc(-c2ccc(OC(F)(F)C(F)F)cc2)n[nH]1 [Serial No. 3, 6-[4-(1,1,2,2-tetrafluoroethoxy)phenyl]-3[2H]pyridazinone] | – | 6.8 | – | 13.2 | 6.8 | – | – | – | – | – | – | 61.7 µM | 9.12 µM
Cn1c(=O)c2[nH]cnc2n(C)c1=O [Theophylline, theophylline, reference compound] | – | – | – | – | 3.1 | 3 of 10 animals | – | – | – | – | – | 417 µM | 135 µM
COc1cc(-c2ccc(=O)[nH]n2)ccc1OC(F)F [compound 5] | – | 469 | – | 110 | 0.7 | 9 of 10 animals | – | – | – | – | – | 0.871 µM | 1.23 µM
O=c1ccc(-c2ccc(OC(F)F)cc2)n[nH]1 [compound 6] | – | 12.9 | – | 11.2 | 2.7 | 8 of 10 animals | – | – | – | – | – | 32.4 µM | 12 µM
O=c1ccc(-c2cccc(OC(F)F)c2)n[nH]1 [compound 7] | – | – | – | 9.3 | > 6.9 | 9 of 10 animals | – | – | – | – | – | > 100 µM | 14.5 µM
